# Measurements as given in ChEMBL document CHEMBL5465560, “Selectivity Literature for EUbOPEN Chemogenomic Library” (2024).
# Tests used:
# [1] = target: Cyclin-dependent kinase 14 (Homo sapiens) (UniProt O94921); details: at 10 µM
# [2] = target: Serine/threonine-protein kinase MRCK alpha (Homo sapiens) (UniProt Q5VT25); assay: Selectivity interaction (KinomeScan (DiscoverX)) EUB0000229b CDC42BPA; details: at 10 µM
# [3] = target: Cyclin-dependent kinase-like 3 (Homo sapiens) (UniProt Q8IVW4); assay: Selectivity interaction (KinomeScan (DiscoverX)) EUB0000092b CDKL3; details: at 10 µM
# [4] = target: Glycogen synthase kinase-3 beta (Homo sapiens, UniProt P49841); assay: Selectivity interaction (KinomeScan (DiscoverX)) EUB0000655a GSK3B; details: at 10 µM
# [5] = target: T1, MAP kinase-activated protein kinase 5 (Homo sapiens) (UniProt Q8IW41); assay: Selectivity interaction (ProQinase) EUB0000171b MAPKAPK5
# T1 sequence (whole entry): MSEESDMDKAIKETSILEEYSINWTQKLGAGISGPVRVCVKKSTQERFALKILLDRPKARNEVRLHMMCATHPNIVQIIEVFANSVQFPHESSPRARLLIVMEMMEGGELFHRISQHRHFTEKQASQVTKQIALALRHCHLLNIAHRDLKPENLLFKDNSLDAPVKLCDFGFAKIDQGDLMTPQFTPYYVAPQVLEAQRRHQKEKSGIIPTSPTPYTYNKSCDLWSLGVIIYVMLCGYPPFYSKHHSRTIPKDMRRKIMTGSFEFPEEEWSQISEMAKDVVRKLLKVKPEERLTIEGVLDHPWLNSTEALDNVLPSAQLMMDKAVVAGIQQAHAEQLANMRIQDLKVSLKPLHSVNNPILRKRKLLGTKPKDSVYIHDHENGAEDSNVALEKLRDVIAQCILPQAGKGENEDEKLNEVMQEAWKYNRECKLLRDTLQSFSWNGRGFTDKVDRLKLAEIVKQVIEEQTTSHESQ
# [6] = target: Vascular endothelial growth factor receptor 2 (Homo sapiens, UniProt P35968); assay: Selectivity interaction (Kinase panel (Z-LYTE Assay)) EUB0001632a KDR; details: at 10 µM
# [7] = target: Serine/threonine-protein kinase 32A (Homo sapiens) (UniProt Q8WU08); assay: Selectivity interaction (KinomeScan (DiscoverX)) EUB0000607a STK32A; details: at 10 µM
# [8] = target: T2, Protein kinase C zeta type (Homo sapiens) (UniProt Q05513); assay: Selectivity interaction (SelectScreen profiling (Invitrogen)) EUB0000607a PRKCZ; details: at 2 µM
# T2 sequence (whole entry): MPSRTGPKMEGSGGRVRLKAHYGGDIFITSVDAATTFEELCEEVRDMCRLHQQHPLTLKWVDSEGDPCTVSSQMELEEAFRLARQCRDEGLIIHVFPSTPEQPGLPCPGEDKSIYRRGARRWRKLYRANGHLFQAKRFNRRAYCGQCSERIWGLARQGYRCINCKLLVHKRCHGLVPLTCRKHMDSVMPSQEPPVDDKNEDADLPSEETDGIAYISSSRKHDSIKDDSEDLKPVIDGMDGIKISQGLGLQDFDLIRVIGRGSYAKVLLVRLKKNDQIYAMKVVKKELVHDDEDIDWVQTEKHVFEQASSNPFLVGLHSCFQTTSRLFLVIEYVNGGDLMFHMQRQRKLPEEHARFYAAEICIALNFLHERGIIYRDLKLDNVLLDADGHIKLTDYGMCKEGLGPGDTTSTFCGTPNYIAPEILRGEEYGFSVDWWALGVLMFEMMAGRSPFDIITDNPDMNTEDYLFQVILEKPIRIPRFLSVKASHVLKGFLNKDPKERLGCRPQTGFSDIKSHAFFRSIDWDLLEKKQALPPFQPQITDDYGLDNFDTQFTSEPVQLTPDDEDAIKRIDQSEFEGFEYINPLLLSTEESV
# [9] = target: T1, MAP kinase-activated protein kinase 5 (Homo sapiens); assay: Selectivity interaction (Ambit KINOMEscan and KiNATiv profiling in Jurkat cells) EUB0000090b MAPKAPK5; format: cell-based; details: at 1 µM
# Sequence of Cyclin-dependent kinase 14 (Homo sapiens) (O94921 whole entry): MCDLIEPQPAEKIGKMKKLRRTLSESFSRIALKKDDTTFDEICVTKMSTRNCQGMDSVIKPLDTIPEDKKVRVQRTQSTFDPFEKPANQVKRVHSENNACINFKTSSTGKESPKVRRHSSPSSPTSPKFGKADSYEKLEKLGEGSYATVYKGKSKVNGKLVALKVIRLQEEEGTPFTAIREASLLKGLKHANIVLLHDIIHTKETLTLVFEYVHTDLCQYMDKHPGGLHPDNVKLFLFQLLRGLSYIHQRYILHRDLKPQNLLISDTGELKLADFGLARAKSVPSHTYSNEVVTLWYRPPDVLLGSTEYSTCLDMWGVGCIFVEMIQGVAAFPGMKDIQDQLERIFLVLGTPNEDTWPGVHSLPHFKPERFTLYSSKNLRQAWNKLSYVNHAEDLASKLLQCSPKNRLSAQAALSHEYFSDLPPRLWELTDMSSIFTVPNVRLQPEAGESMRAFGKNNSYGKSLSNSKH
# Sequence of Serine/threonine-protein kinase 32A (Homo sapiens) (Q8WU08 whole entry): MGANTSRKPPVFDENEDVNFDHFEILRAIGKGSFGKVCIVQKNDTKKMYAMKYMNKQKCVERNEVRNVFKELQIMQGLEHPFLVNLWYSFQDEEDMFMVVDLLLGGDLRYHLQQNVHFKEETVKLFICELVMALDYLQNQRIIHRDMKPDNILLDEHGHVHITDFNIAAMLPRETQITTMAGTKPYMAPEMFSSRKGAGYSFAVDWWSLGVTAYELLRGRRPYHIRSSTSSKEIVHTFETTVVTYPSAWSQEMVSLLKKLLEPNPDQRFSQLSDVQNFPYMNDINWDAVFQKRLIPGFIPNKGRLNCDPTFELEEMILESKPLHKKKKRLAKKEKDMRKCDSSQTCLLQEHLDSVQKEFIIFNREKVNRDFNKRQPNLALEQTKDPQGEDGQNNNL
# Sequence of Glycogen synthase kinase-3 beta (P49841 whole entry, looked up): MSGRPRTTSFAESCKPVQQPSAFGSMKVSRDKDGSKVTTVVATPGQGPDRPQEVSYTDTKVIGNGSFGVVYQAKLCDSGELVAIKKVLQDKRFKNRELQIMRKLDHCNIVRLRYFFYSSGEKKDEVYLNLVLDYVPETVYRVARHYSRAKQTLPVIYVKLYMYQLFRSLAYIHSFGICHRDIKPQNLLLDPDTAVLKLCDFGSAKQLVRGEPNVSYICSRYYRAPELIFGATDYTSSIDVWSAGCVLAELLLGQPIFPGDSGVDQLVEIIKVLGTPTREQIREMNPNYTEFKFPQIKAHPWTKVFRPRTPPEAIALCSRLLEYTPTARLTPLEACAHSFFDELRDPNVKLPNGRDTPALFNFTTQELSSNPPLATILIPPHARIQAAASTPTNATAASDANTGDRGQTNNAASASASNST
# Sequence of Cyclin-dependent kinase-like 3 (Homo sapiens) (Q8IVW4 whole entry, looked up): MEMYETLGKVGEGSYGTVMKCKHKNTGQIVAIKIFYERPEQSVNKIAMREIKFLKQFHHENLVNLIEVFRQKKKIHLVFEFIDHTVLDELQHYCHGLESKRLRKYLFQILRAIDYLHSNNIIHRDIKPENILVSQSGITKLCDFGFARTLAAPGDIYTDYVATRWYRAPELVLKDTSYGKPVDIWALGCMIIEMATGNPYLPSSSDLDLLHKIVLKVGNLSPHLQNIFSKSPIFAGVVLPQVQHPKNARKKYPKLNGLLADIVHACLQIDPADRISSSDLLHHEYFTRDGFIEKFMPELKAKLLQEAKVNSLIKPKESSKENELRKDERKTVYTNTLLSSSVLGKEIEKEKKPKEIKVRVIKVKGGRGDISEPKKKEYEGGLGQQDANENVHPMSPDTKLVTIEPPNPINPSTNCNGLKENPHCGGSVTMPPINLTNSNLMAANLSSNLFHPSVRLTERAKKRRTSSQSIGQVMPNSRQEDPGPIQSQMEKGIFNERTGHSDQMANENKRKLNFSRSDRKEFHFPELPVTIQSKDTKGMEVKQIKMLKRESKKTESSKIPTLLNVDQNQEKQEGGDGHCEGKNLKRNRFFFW
# Sequence of Serine/threonine-protein kinase MRCK alpha (Homo sapiens) (Q5VT25 whole entry): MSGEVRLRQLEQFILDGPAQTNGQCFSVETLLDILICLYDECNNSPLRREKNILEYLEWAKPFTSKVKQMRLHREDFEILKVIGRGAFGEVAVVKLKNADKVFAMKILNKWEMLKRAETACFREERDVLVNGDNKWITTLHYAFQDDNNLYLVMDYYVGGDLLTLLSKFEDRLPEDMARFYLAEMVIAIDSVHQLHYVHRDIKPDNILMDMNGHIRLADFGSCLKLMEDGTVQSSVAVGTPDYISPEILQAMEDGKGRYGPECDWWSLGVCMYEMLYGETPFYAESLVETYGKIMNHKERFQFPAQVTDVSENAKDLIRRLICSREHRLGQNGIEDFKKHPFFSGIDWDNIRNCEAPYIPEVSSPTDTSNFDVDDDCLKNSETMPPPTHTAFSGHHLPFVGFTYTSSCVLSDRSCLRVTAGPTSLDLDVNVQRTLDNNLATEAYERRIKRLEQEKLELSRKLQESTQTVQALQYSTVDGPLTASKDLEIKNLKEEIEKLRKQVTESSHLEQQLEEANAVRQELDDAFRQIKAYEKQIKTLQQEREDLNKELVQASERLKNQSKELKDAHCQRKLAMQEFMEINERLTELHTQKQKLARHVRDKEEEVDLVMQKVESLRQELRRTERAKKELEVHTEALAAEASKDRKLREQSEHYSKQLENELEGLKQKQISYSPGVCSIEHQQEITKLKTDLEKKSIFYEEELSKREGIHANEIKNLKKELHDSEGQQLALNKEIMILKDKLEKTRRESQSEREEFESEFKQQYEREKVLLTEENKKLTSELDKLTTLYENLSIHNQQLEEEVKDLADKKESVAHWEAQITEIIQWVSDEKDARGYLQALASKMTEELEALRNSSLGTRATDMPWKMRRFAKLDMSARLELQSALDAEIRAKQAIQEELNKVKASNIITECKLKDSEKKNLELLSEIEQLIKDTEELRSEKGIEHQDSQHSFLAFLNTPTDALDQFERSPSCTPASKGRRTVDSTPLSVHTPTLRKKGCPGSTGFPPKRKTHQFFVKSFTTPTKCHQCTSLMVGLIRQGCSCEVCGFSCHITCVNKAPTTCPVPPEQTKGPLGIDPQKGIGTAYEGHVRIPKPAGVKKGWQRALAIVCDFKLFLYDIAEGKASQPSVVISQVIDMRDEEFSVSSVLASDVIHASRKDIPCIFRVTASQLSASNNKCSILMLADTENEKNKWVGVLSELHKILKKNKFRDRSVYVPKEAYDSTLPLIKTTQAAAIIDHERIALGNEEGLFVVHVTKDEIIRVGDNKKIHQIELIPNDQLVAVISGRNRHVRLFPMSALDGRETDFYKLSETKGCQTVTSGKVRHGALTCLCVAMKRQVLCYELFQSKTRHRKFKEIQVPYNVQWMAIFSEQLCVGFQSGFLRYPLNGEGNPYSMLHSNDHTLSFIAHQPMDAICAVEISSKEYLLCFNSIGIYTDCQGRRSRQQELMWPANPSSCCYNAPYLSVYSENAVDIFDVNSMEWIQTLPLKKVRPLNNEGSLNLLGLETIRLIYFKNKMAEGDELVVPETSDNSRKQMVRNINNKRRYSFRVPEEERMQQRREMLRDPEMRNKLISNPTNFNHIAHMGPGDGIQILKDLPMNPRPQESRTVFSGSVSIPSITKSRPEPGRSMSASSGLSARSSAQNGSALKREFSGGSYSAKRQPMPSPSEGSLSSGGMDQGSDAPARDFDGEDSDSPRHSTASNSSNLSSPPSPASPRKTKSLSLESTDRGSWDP
# Sequence of Vascular endothelial growth factor receptor 2 (P35968 whole entry): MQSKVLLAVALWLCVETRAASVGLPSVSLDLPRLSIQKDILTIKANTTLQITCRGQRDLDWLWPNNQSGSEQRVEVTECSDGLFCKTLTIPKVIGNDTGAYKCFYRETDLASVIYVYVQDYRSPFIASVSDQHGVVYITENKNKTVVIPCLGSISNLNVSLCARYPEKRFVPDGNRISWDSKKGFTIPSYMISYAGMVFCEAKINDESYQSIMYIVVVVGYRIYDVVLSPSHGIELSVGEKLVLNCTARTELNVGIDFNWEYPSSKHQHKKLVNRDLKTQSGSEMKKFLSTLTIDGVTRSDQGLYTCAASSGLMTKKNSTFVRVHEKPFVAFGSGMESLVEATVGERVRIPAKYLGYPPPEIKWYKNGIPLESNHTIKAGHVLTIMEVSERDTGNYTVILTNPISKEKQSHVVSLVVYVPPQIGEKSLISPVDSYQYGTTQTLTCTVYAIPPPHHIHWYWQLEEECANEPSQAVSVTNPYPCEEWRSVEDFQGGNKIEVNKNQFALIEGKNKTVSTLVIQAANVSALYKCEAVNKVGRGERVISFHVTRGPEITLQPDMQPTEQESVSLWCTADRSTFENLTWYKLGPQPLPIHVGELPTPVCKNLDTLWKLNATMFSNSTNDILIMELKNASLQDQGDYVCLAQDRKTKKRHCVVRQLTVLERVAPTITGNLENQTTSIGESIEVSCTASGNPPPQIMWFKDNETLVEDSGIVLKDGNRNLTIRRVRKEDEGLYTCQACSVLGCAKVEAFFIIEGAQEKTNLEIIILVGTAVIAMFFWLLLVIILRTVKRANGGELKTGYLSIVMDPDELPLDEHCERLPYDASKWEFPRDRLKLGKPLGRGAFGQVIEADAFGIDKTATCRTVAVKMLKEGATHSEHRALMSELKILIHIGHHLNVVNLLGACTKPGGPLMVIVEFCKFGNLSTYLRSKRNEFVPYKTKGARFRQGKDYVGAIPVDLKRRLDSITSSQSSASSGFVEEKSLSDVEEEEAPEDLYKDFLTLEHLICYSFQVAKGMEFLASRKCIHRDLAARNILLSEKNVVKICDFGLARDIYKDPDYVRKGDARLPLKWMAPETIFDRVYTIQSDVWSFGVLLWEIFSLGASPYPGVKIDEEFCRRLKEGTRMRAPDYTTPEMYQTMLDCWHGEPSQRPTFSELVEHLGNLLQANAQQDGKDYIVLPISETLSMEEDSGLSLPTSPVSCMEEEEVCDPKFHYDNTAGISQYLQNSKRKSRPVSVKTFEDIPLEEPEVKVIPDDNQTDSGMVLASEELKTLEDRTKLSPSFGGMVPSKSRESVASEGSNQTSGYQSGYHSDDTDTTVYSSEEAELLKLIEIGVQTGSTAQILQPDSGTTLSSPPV
smiles,measurement,setting,value
CCN(CC)CCCCNc1ncc2cc(-c3cc(OC)cc(OC)c3)c(NC(=O)NC(C)(C)C)nc2n1,% of control,[1],100%
COc1cc(N(C)c2ccnc3ccc(C(F)(F)F)cc23)cc(OC)c1OC,% binding,[2],100%
CCC(=O)N1CCN(c2ccc(-n3c(=O)ccc4cnc5ccc(-c6cnc7ccccc7c6)cc5c43)cc2C(F)(F)F)CC1,% of control,[3],92%
CN(C)CCOc1ccc(-c2nc(-c3ccncc3)c(-c3ccc4c(c3)CC/C4=N\O)[nH]2)cc1,% of control,[4],81%
C=CC(=O)Nc1cccc(C(=O)Nc2ccc(Nc3cc(-c4[nH]c(SC)nc4C)ccn3)cc2)c1,% of control,[5]; at 1 µM,96%
same,% of control,[5]; at 5 µM,97%
Cn1cc(-n2cnc3c(NCc4nc5cc(Cl)c(Cl)cc5[nH]4)nc(N4CCOCC4)nc32)cn1,% of control,[6],0.298%
CNC(=O)Nc1ccc(-c2nc(N3CC4CCC(C3)O4)c3cnn(C4CCC5(CC4)OCCO5)c3n2)cc1,% of control,[7],99%
same,% of inhibition,[8],8%
CN(C)C/C=C/C(=O)Nc1ccc(C(=O)N2CCCC(Nc3ncc(Cl)c(-c4c[nH]c5ccccc45)n3)C2)cc1 (stereo not given),% of control,[9],99%
